Source: patent US20240083903A1, “ARYL ETHER COMPOUNDS AS TEAD MODULATORS” (Merck Sharp& Dohme LLC, priority 2021, published 2024)

Test system: TEAD Reporter-MCF7 cell line
Assay: YAP/TEAD cellular activity assay: inhibition of TEAD-Luc activity in TEAD Reporter-MCF7 cell line
Assay type: cell-based, human
Conditions: Homo sapiens, MCF7, 24 h, TEAD Reporter-MCF7 cells, 24 hours incubation with compound, luciferase readout
Experimental: YAP/TEAD Cellular Activity Assay
Quantitation of Compound Potency on the Inhibition of TEAD-Luc Activity in TEAD Reporter-MCF7 Cell Line.
The TEAD Reporter-MCF7 cell line containing the firefly luciferase gene under the control of TEAD responsive elements stably integrated into the human breast cancer cell line was purchased from BPS Bioscience (Cat #60618). The cells were cultured with complete culture medium ([…], 1 mM sodium pyruvate, 10% fetal bovine serum, 10 ng/mL insulin and 400 ug/mL G418 sulfate) prior to the assay. For the assay, the cells were harvested, resuspended in the complete culture medium without G418, and seeded into white solid bottom 384-well cell culture microplates in 25 uL with 10,000 cells per well. The plates were incubated at 37° C. in a CO2 incubator for 20-24 hours and the compounds were then transferred from Echo LDV plates directly into the 384-well white tissue culture plates with an Echo. The plates were incubated at 37° C. in a CO2 incubator for 24 hours and equal volume of ONE-Glo™ EX Luciferase reagent (Promega, Cat #E8150) was added. After mixing on a shaker at room temperature for 10 minutes, the luciferase activity was measured with an Envision. The percentage inhibition and EC50 values of compounds were calculated with Spotfire.
Required Materials • 1. TEAD reporter-MCF-7 Cells (BPS Bioscience, #60618) • 2. Complete Cell Culture Medium (without selection antibiotics) • EMEM 89% (ATCC, #30-2003) • FBS 10% (Hyclone, #SH30088.03) • 1% Non essential amino acids (Gibco, • 1 mM sodium pyruvate (Gibco, • Pen/Strep, 1% (Gibco, #15140-122) • 10 ng/mL insulin (Sigma, #10516) • 3. Complete Cell Culture Medium (with selection antibiotics) • EMEM 89% (ATCC, #30-2003) • F1% Non essential amino acids (Gibco, • 1 mM sodium pyruvate (Gibco, • BS 10% (Hyclone, #SH30088.03) • 10 ng/mL insulin (Sigma, #10516) • 400 ug/mL G418 sulfate (Agilent, #200049-21) • 4. Miscellaneous tissue culture equipment and reagents. • 5. White solid 384-well tissue culture plate (Greiner, Cat #781080) • 6. One Glo EX luciferase assay system (Promega, #E8150)
The following table tabulates the biological data disclosed for the current invention. The biological data was collected using the methodology described above. For each compound, TEAD-Luc EC50 values are listed in nanomolar (nM) concentration units.

Row | SMILES | EC50 [nM]
1 | CNS(=O)(=O)c1ccc(Oc2ccc(C(F)(F)F)cc2)c(-c2cccc3cc[nH]c23)c1 [2-7, 3-(1H-indol-7-yl)-N-methyl-4-[4-(trifluoromethyl)phenoxy]benzene-1-sulfonamide] | 5620
2 | CNS(=O)(=O)c1ccc(Oc2ccc(C(F)(F)F)cc2)c(-c2ccc3c(c2)n(C)c(=O)n3C)c1 [2-8, 3-(1,3-dimethyl-2-oxo-2,3-dihydro-1H-benzimidazol-5-yl)-N-methyl-4-[4-(trifluoromethyl)phenoxy]benzene-1-sulfonamide] | 198
3 | CNS(=O)(=O)c1ccc(Oc2ccc(C(F)(F)F)cc2)c(-c2ccnc3[nH]ccc23)c1 [2-9, N-methyl-3-(1H-pyrrolo[2,3-b]pyridin-4-yl)-4-[4-(trifluoromethyl)phenoxy]benzene-1-sulfonamide] | 2180
4 | CNS(=O)(=O)c1ccc(Oc2ccc(C(F)(F)F)cc2)c(-c2cnc3[nH]ccc3c2)c1 [2-10, N-methyl-3-(1H-pyrrolo[2,3-b]pyridin-5-yl)-4-[4-(trifluoromethyl)phenoxy]benzene-1-sulfonamide] | 2420
5 | CNS(=O)(=O)c1ccc(Oc2ccc(C(F)(F)F)cc2)c(-c2ccc3c(c2)C(=O)N(CC2CC2)C3)c1 [2-11, 3-[2-(cyclopropylmethyl)-3-oxo-2,3-dihydro-1H-isoindol-5-yl]-N-methyl-4-[4-(trifluoromethyl)phenoxy]benzene-1-sulfonamide] | 338
6 | CNS(=O)(=O)c1ccc(Oc2ccc(C(F)(F)F)cc2)c(-c2ccc3ncn(C4CC4)c3c2)c1 [2-12, 3-(1-cyclopropyl-1H-benzimidazol-6-yl)-N-methyl-4-[4-(trifluoromethyl)phenoxy]benzene-1-sulfonamide] | 2860
7 | CNS(=O)(=O)c1ccc(Oc2ccc(C(F)(F)F)cc2)c(-c2cccc3nc(N)[nH]c23)c1 [2-13, 3-(2-amino-1H-benzimidazol-7-yl)-N-methyl-4-[4-(trifluoromethyl)phenoxy]benzene-1-sulfonamide] | 3650
8 | CNS(=O)(=O)c1ccc(Oc2ccc(C(F)(F)F)cc2)c(-c2ccc3c(c2)OCO3)c1 [2-14, 3-(2H-1,3-benzodioxol-5-yl)-N-methyl-4-[4-(trifluoromethyl)phenoxy]benzene-1-sulfonamide] | 247
9 | CNS(=O)(=O)c1ccc(Oc2ccc(C(F)(F)F)cc2)c(-c2ccc3c(cnn3C)c2)c1 [2-15, N-methyl-3-(1-methyl-1H-indazol-5-yl)-4-[4-(trifluoromethyl)phenoxy]benzene-1-sulfonamide] | 336
10 | CNS(=O)(=O)c1ccc(Oc2ccc(C(F)(F)F)cc2)c(-c2cnn3c2CCCC3)c1 [2-16, N-methyl-3-(4,5,6,7-tetrahydropyrazolo[1,5-a]pyridin-3-yl)-4-[4-(trifluoromethyl)phenoxy]benzene-1-sulfonamide] | 631
11 | CNS(=O)(=O)c1ccc(Oc2ccc(C(F)(F)F)cc2)c(-c2cnn3c2OCC(C)C3)c1 (stereo not drawn) [2-17, N-methyl-3-(6-methyl-6,7-dihydro-5H-pyrazolo[5,1-b][1,3]oxazin-3-yl)-4-[4-(trifluoromethyl)phenoxy]benzene-1-sulfonamide] | 590
12 | CNS(=O)(=O)c1ccc(Oc2ccc(C(F)(F)F)cc2)c(-c2cnc3c(c2)OCCN3C)c1 [2-18, N-methyl-3-(4-methyl-3,4-dihydro-2H-pyrido[3,2-b][1,4]oxazin-7-yl)-4-[4-(trifluoromethyl)phenoxy]benzene-1-sulfonamide] | 606
13 | CNS(=O)(=O)c1ccc(Oc2ccc(C(F)(F)F)cc2)c(-c2cncc3ccccc23)c1 [2-19, 3-(isoquinolin-4-yl)-N-methyl-4-[4-(trifluoromethyl)phenoxy]benzene-1-sulfonamide] | 8860
14 | CNS(=O)(=O)c1ccc(Oc2ccc(C(F)(F)F)cc2)c(-c2cccc3cnccc23)c1 [2-20, 3-(isoquinolin-5-yl)-N-methyl-4-[4-(trifluoromethyl)phenoxy]benzene-1-sulfonamide] | 4780
15 | CNS(=O)(=O)c1ccc(Oc2ccc(C(F)(F)F)cc2)c(-c2cc3ccc(C)nc3cc2OC)c1 [2-21, 3-(7-methoxy-2-methylquinolin-6-yl)-N-methyl-4-[4-(trifluoromethyl)phenoxy]benzene-1-sulfonamide] | 9780
16 | CNS(=O)(=O)c1ccc(Oc2ccc(C(F)(F)F)cc2)c(-c2ccc3c(c2)NC(=O)CO3)c1 [2-22, N-methyl-3-(3-oxo-3,4-dihydro-2H-1,4-benzoxazin-6-yl)-4-[4-(trifluoromethyl)phenoxy]benzene-1-sulfonamide] | 92.6
17 | CNS(=O)(=O)c1ccc(Oc2ccc(C(F)(F)F)cc2)c(-c2cc3c(cc2F)N(C)C(=O)CC3)c1 [2-23, 3-(7-fluoro-1-methyl-2-oxo-1,2,3,4-tetrahydroquinolin-6-yl)-N-methyl-4-[4-(trifluoromethyl)phenoxy]benzene-1-sulfonamide] | 3640
18 | CNS(=O)(=O)c1ccc(Oc2ccc(C(F)(F)F)cc2)c(-c2ccc3cccnc3c2)c1 [2-24, N-methyl-3-(quinolin-7-yl)-4-[4-(trifluoromethyl)phenoxy]benzene-1-sulfonamide] | 273
19 | CNc1ncc2cc(-c3cc(S(=O)(=O)NC)ccc3Oc3ccc(C(F)(F)F)cc3)ccc2n1 [2-25, N-methyl-3-[2-(methylamino)quinazolin-6-yl]-4-[4-(trifluoromethyl)phenoxy]benzene-1-sulfonamide] | 232
20 | CNS(=O)(=O)c1ccc(Oc2ccc(C(F)(F)F)cc2)c(-c2cccc3c2OCC(=O)N3)c1 [2-26, N-methyl-3-(3-oxo-3,4-dihydro-2H-1,4-benzoxazin-8-yl)-4-[4-(trifluoromethyl)phenoxy]benzene-1-sulfonamide] | 3180
21 | CNS(=O)(=O)c1ccc(Oc2ccc(C(F)(F)F)cc2)c(-c2ccc3nccnc3c2)c1 [2-27, N-methyl-3-(quinoxalin-6-yl)-4-[4-(trifluoromethyl)phenoxy]benzene-1-sulfonamide] | 410
22 | CNS(=O)(=O)c1ccc(Oc2ccc(C(F)(F)F)cc2)c(-c2ccc3c(c2)OCC(=O)N3)c1 [2-28, N-methyl-3-(3-oxo-3,4-dihydro-2H-1,4-benzoxazin-7-yl)-4-[4-(trifluoromethyl)phenoxy]benzene-1-sulfonamide] | 5230
23 | CNS(=O)(=O)c1ccc(Oc2ccc(C(F)(F)F)cc2)c(-c2ccc3nc(OC)ccc3c2)c1 [2-29, 3-(2-methoxyquinolin-6-yl)-N-methyl-4-[4-(trifluoromethyl)phenoxy]benzene-1-sulfonamide] | 89.7
24 | CNS(=O)(=O)c1ccc(Oc2ccc(C(F)(F)F)cc2)c(-c2cnc3cccnc3c2)c1 [2-30, N-methyl-3-(1,5-naphthyridin-3-yl)-4-[4-(trifluoromethyl)phenoxy]benzene-1-sulfonamide] | 675
25 | CNS(=O)(=O)c1ccc(Oc2ccc(C(F)(F)F)cc2)c(-c2ccc3nc(C)ccc3c2)c1 [2-31, N-methyl-3-(2-methylquinolin-6-yl)-4-[4-(trifluoromethyl)phenoxy]benzene-1-sulfonamide] | 663
26 | CNS(=O)(=O)c1ccc(Oc2ccc(C(F)(F)F)cc2)c(-c2ccc3c(=O)nc[nH]c3c2)c1 [2-32, N-methyl-3-(4-oxo-1,4-dihydroquinazolin-7-yl)-4-[4-(trifluoromethyl)phenoxy]benzene-1-sulfonamide] | 7570
27 | CNS(=O)(=O)c1ccc(Oc2ccc(C(F)F)cc2)c(-c2cnn3c2OCC3)c1 [2-33, 4-[4-(difluoromethyl)phenoxy]-3-(2,3-dihydropyrazolo[5,1-b] [1,3]oxazol-7-yl)-N-methylbenzene-1-sulfonamide] | 356
28 | CNS(=O)(=O)c1ccc(Oc2ccc(SC(F)(F)F)cc2)c(-c2cnn3c2CCC3)c1 [3-1, 3-(5,6-Dihydro-4H-pyrrolo[1,2-b]pyrazol-3-yl)-N-methyl-4-(4-((trifluoromethyl)thio)phenoxy)benzenesulfonamide] | 447
29 | CNS(=O)(=O)c1ccc(Oc2cc(C(F)(F)F)cc(C(F)(F)F)c2)c(-c2cnn3c2CCC3)c1 [3-2, 4-[3,5-bis(trifluoromethyl)phenoxy]-3-(5,6-dihydro-4H-pyrrolo[1,2-b]pyrazol-3-yl)-N-methylbenzene-1-sulfonamide] | 9140
30 | CNS(=O)(=O)c1ccc(Oc2cc(F)cc(C(F)(F)F)c2)c(-c2cnn3c2CCC3)c1 [3-3, 3-(5,6-dihydro-4H-pyrrolo[1,2-b]pyrazol-3-yl)-4-[3-fluoro-5-(trifluoromethyl)phenoxy]-N-methylbenzene-1-sulfonamide] | 2080
